Assay results: the NIST ThermoML archive (doi:10.1021/acs.jced.7b00654)

Experiment: xn = mol fraction of the nth substance listed
Conditions: 96.7 kPa, Liquid, Vibrating tube method

CCCCn1cc[n+](C)c1.[Cl-] [1-butyl-3-methylimidazolium chloride] + CN(C)C=O
mass density [kg/m3]
Conditions | x1 = 0.151 | x1 = 0.295 | x1 = 0.385 | x1 = 0.493 | x1 = 0.626 | x1 = 0.79 | x1 = 0.887 | x1 = 1
303.15 K | 987.64 | 1016.34 | 1030.08 | 1043.12 | 1055.89 | 1067.73 | 1072.65 | 1079.41
308.15 K | 983.55 | 1012.63 | 1026.56 | 1039.78 | 1052.75 | 1064.72 | 1069.74 | 1076.58
313.15 K | 979.45 | 1008.93 | 1023.05 | 1036.46 | 1049.6 | 1061.75 | 1066.84 | 1073.78
318.15 K | 975.35 | 1005.24 | 1019.54 | 1033.15 | 1046.6 | 1058.83 | 1063.95 | 1070.99
323.15 K | 971.26 | 1001.56 | 1016.05 | 1029.85 | 1043.35 | 1055.91 | 1060.97 | 1068.19
328.15 K | 967.16 | 997.89 | 1012.57 | 1026.56 | 1040.24 | 1052.99 | 1058.13 | 1065.36
333.15 K | 963.07 | 994.21 | 1009.1 | 1023.29 | 1037.16 | 1050.07 | 1055.31 | 1062.6
338.15 K | 958.97 | 990.55 | 1005.66 | 1020.03 | 1034.08 | 1047.16 | 1052.48 | 1059.87
343.15 K | 954.87 | 986.89 | 1002.24 | 1016.78 | 1031.03 | 1044.26 | 1049.67 | 1057.15
348.15 K | 950.78 | 983.24 | 998.82 | 1013.55 | 1027.98 | 1041.39 | 1046.88 | 1054.42
353.15 K | 946.68 | 979.59 | 995.4 | 1010.33 | 1024.94 | 1038.53 | 1044.11 | 1051.69

CCCCn1cc[n+](C)c1.[Cl-] [1-butyl-3-methylimidazolium chloride] + CC(=O)N(C)C
mass density [kg/m3]
Conditions | x1 = 0.177 | x1 = 0.332 | x1 = 0.428 | x1 = 0.538 | x1 = 0.664 | x1 = 0.816 | x1 = 0.904 | x1 = 1
303.15 K | 980.28 | 1010.24 | 1025.06 | 1038.52 | 1052.4 | 1066.29 | 1073.17 | 1079.41
308.15 K | 976.2 | 1006.61 | 1021.6 | 1035.1 | 1049.19 | 1063.28 | 1070.28 | 1076.58
313.15 K | 972.2 | 1002.98 | 1018.15 | 1031.7 | 1045.95 | 1060.2 | 1067.41 | 1073.78
318.15 K | 968.23 | 999.36 | 1014.71 | 1028.35 | 1042.78 | 1057.21 | 1064.54 | 1070.99
323.15 K | 964.27 | 995.75 | 1011.28 | 1024.85 | 1039.56 | 1054.27 | 1061.66 | 1068.19
328.15 K | 960.32 | 992.15 | 1007.86 | 1021.56 | 1036.44 | 1051.33 | 1058.85 | 1065.36
333.15 K | 956.38 | 988.55 | 1004.46 | 1018.33 | 1033.37 | 1048.41 | 1056.06 | 1062.6
338.15 K | 952.45 | 984.97 | 1001.06 | 1015.16 | 1030.34 | 1045.52 | 1053.26 | 1059.87
343.15 K | 948.53 | 981.38 | 997.67 | 1012.07 | 1027.37 | 1042.67 | 1050.47 | 1057.15
348.15 K | 944.61 | 977.8 | 994.29 | 1009.03 | 1024.45 | 1039.87 | 1047.69 | 1054.42
353.15 K | 940.67 | 974.22 | 990.92 | 1006.06 | 1021.59 | 1037.13 | 1044.91 | 1051.69

c1ccncc1 [pyridine] + CCCCn1cc[n+](C)c1.[Cl-]
mass density [kg/m3]
Conditions | x2 = 0 | x2 = 0.163 | x2 = 0.313 | x2 = 0.404 | x2 = 0.514 | x2 = 0.644 | x2 = 0.803 | x2 = 0.895
303.15 K | 973.09 | 1013.2 | 1035.67 | 1045.6 | 1054.49 | 1063.34 | 1072.41 | 1075.89
308.15 K | 968.06 | 1009.09 | 1032.05 | 1042.19 | 1051.2 | 1060.26 | 1069.51 | 1073.02
313.15 K | 963.02 | 1004.97 | 1028.43 | 1038.78 | 1047.94 | 1057.18 | 1066.59 | 1070.16
318.15 K | 957.97 | 1000.85 | 1024.82 | 1035.39 | 1044.72 | 1054.11 | 1063.66 | 1067.3
323.15 K | 952.9 | 996.73 | 1021.21 | 1032.01 | 1041.52 | 1051.04 | 1060.72 | 1064.45
328.15 K | 947.82 | 992.6 | 1017.6 | 1028.63 | 1038.33 | 1047.99 | 1057.81 | 1061.65
333.15 K | 942.72 | 988.47 | 1014 | 1025.25 | 1035.14 | 1044.96 | 1054.92 | 1058.86
338.15 K | 937.6 | 984.34 | 1010.4 | 1021.89 | 1031.93 | 1041.94 | 1052.08 | 1056.09
343.15 K | 932.46 | 980.21 | 1006.81 | 1018.53 | 1028.66 | 1038.93 | 1049.29 | 1053.31
348.15 K | 927.3 | 976.06 | 1003.22 | 1015.17 | 1025.27 | 1035.92 | 1046.57 | 1050.53
353.15 K | 922.12 | 971.91 | 999.63 | 1011.79 | 1021.81 | 1032.89 | 1044.02 | 1047.77

CCCCn1cc[n+](C)c1.[Cl-] [1-butyl-3-methylimidazolium chloride] + C[S+](C)[O-]
mass density [kg/m3]
Conditions | x1 = 0.161 | x1 = 0.309 | x1 = 0.401 | x1 = 0.509 | x1 = 0.641 | x1 = 0.801 | x1 = 0.894 | x1 = 1
303.15 K | 1090.42 | 1093.72 | 1092.13 | 1089.44 | 1086.22 | 1083.66 | 1081.72 | 1079.41
308.15 K | 1086.85 | 1089.98 | 1088.58 | 1086.09 | 1082.96 | 1080.69 | 1078.88 | 1076.58
313.15 K | 1083.14 | 1086.25 | 1085.04 | 1082.74 | 1079.73 | 1077.69 | 1075.99 | 1073.78
318.15 K | 1079.58 | 1082.54 | 1081.51 | 1079.35 | 1076.52 | 1074.71 | 1073.12 | 1070.99
323.15 K | 1075.76 | 1078.83 | 1078 | 1076.05 | 1073.33 | 1071.78 | 1070.22 | 1068.19
328.15 K | 1072.19 | 1075.14 | 1074.5 | 1072.7 | 1070.18 | 1068.87 | 1067.39 | 1065.36
333.15 K | 1068.87 | 1071.45 | 1071.01 | 1069.47 | 1067.09 | 1065.95 | 1064.59 | 1062.6
338.15 K | 1065.13 | 1067.76 | 1067.54 | 1066.13 | 1064.06 | 1063.04 | 1061.79 | 1059.87
343.15 K | 1061.44 | 1064.1 | 1064.07 | 1062.88 | 1061.11 | 1060.14 | 1058.99 | 1057.15
348.15 K | 1057.69 | 1060.44 | 1060.63 | 1059.65 | 1058.17 | 1057.25 | 1056.19 | 1054.42
353.15 K | 1053.72 | 1056.79 | 1057.19 | 1056.42 | 1055.25 | 1054.38 | 1053.41 | 1051.69
